Consider 16 molecules from ChEMBL document CHEMBL2062445, “Synthesis and nicotinic receptor activity of chemical space analogues of N-(3R)-1-azabicyclo[2.2.2]oct-3-yl-4-chlorobenzamide (PNU-282,987) and 1,4-diazabicyclo[3.2.2]nonane-4-carboxylic acid 4-bromophenyl ester (SSR180711)” (J Med Chem, 2012).

The source made the active and inactive calls. The calls are words filed in the database; no cut-off is given here.

In general, inhibition refers to the share of the control response that was lost under treatment. The term IC50 denotes the concentration that gives 50% inhibition.

Assay [1] concerns the target T1, Neuronal acetylcholine receptor subunit alpha-7 (Homo sapiens, UniProt P36544). As to the kind of experiment: Antagonist activity at human alpha7 nAChR expressed in Xenopus oocyte assessed as inhibition of ACh-induced current at 10 uM after 30 secs by electrophysiological assay. Format: functional.
The target of assay [2] is T2, Neuronal acetylcholine receptor; alpha3/beta2 (Homo sapiens) (UniProt P17787+P32297). The assay is described as follows: Positive allosteric modulation at human recombinant alpha3beta 2 nAChR expressed in Xenopus oocyte assessed as stimulation of ACh-induced current at 10 uM after 30 secs by electrophysiological assay.
For assay [3], the target named is T2, Neuronal acetylcholine receptor; alpha3/beta2 (Homo sapiens). As to the kind of experiment: Positive allosteric modulation at human recombinant alpha3beta 2 nAChR expressed in Xenopus oocyte assessed as inhibition of ACh-induced current at 100 uM after 30 secs by electrophysiological assay.
In assay [4] the target is T1, Neuronal acetylcholine receptor subunit alpha-7. As to the kind of experiment: Antagonist activity at human alpha7 nAChR expressed in Xenopus oocyte assessed as inhibition of ACh-induced current after 30 secs by electrophysiological assay. In kind it is functional.
Assay [5] has the same target. As to the kind of experiment: Partial agonist activity at human alpha7 nAChR expressed in Xenopus oocyte assessed as stimulation of ACh-induced current after 30 secs by electrophysiological assay. In kind it is functional.
Assay [6] has the same target. As to the kind of experiment: Agonist activity at human alpha7 nAChR expressed in Xenopus oocyte assessed as stimulation of ACh-induced current at 10 uM after 30 secs by electrophysiological assay. In kind it is functional.
Assay [7] addresses T2, Neuronal acetylcholine receptor; alpha3/beta2 (Homo sapiens). The assay is described as follows: Negative allosteric modulation at human recombinant alpha3beta 2 nAChR expressed in Xenopus oocyte assessed as inhibition of ACh-induced current at 100 uM after 30 secs by electrophysiological assay.

T1 sequence (P36544 whole entry): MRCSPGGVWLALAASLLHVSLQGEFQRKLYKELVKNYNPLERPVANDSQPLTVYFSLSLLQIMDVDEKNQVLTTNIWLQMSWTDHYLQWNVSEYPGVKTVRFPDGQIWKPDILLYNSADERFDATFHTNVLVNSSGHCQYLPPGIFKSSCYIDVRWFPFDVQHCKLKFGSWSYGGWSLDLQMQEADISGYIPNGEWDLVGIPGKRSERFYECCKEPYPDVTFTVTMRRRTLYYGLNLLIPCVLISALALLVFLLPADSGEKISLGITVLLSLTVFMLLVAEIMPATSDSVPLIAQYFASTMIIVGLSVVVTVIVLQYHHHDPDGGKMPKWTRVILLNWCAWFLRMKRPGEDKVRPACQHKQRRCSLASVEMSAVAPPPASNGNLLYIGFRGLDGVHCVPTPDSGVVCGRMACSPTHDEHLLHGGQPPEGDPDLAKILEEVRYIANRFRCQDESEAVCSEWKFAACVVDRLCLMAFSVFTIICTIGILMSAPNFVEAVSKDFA

For the molecule `O=C(NCC1CC2CCN1CC2)c1ccc(F)cc1` (racemic), the inhibition in assay [1] was 84%. Moreover, the outcome in assay [2] and in assay [3] was Active.

`CCC#CCN1CCC[C@@H]1CNC(=O)c1ccc2ncsc2c1`: the inhibition in assay [1] came to 13%. In assay [4], the IC50 turned out to be 40 µM.

For the molecule `O=C(Oc1ccc(Br)cc1)N1CCN2CCC1CC2`, the result in assay [5] was Active.

Turning to `CC(C)N1CCCCN(C(=O)c2ccc3c(c2)OCCO3)CC1`, in assay [1], the inhibition was 25%. In assay [4], the IC50 was 6.9 µM.

For `CCC#CCN1CCC[C@H]1CNC(=O)c1ccc2ncsc2c1`, the inhibition in assay [1] was determined as 88%. Besides, the result in assay [6] was inactive. Further, in assay [4], the IC50 turned out to be 45 µM.

With `O=C(NCC12CCCN1CCC2)c1ccccc1`, in assay [1], the inhibition is 26%. The result in assay [2] and in assay [7] was Active.

Consider `O=C(NCC12CCCN1CCC2)c1ccc(Cl)cc1`, for which the inhibition in assay [1] turned out to be 32%. The result in assay [2] and in assay [7] was Active.

`O=C(NCC1=CC2CCN1CC2)c1ccccc1`: the inhibition in assay [1] amounted to 35%. Besides, the result in assay [6] was inactive.

For the molecule `CC1CCCC1N1CC[C@H](NC(=O)c2ccc3ncsc3c2)C1` (stereo not given in full), in assay [1], the inhibition is 20%. The IC50 in assay [4] is 5 µM.

Take `O=C(N[C@@H]1CCCC[C@H]1N1CCCCC1)Oc1ccc(Br)cc1` (racemic): the inhibition in assay [1] turned out to be 34%. In assay [4], the half-inhibitory concentration (IC50) worked out at 10 µM.

As to `CN1CC2CCC1C(CNC(=O)c1ccccc1)C2` (racemic; form 2), in assay [1], the inhibition is 54%. For the same molecule, the result in assay [6] was inactive.

For the molecule `CN1CCC2CC1CN(C(=O)Oc1ccc(Br)cc1)C2` (racemic), the result in assay [2] and in assay [7] was Active.

With `O=C(c1ccc(Br)cc1)N1CCCN2CCC[C@@H]2C1`, the inhibition in assay [1] was 40%. Moreover, the result in assay [6] was inactive.

On to `CCC#CCN1CCC[C@H]1COC(=O)c1ccc2ncsc2c1`, for which, in assay [1], the inhibition was determined as 60%. In assay [6], the result was inactive.

As to `O=C(c1ccc(F)cc1)N1CCCN2CCC[C@@H]2C1`, in assay [1], the inhibition was found to be 58%. Further, the outcome in assay [6] was inactive.

For the molecule `O=C(c1ccccc1)N1CCCN2CCC[C@@H]2C1`, the inhibition in assay [1] turned out to be 55%. Besides, in assay [6], the outcome was inactive.
